Measured values: patent US12116594B2, “Methods for differentiating cells” (BOND UNIVERSITY LTD, priority 2015, dated 2024)
Entries after “also recorded” stand apart in the source; their conditions may differ.

System: Mell hESC
Assay: Differentiation assay for small molecule differentiation of hESC to hESC-RPEC; ANEB outgrowths scored for % putative RPE morphology at day 14
Format: cell-based, human
Source text: FIG. 31 Establishment of differentiation conditions for hESC-RPEC differentiation using small molecules. (A): Differentiation assay for small molecule differentiation of Mell hESC to hESC-RPEC. […] (B): Optimal ANEB size determined between 1000-1500 cells/body. (C): Optimal window for both seeding ANEBs and switching to RDM is day 6. […] For each experiment, ANEB outgrowths were scored for % putative RPE morphology at day 14. Differentiation is represented as heat map scores (0=0%, 1=5-10%, 2=10-15%, 3=15-25%, 5=25-40%, 6=40-55%, 7=55-70%, 8=80+%).
HESC cultures were prepared for differentiation by supplementing mTeSR™1 with 10 uM Y-27632 (Rock inhibitor) (Sigma) for at least one hour prior to single cell dissociation with TrypLE™ Express (Gibco), counted and replated onto plates pre-coated with reduced growth factor Matrigel™ (RGFMG) (Corning) at high density (150,000 cells/cm2) in mTeSR™1 medium, supplemented with 10 uM Y-27632 and cultured overnight. The following day, cultures were refed fresh mTeSR™1 medium, without Rock inhibitor cultured for another 18-48 hours, or until cell cultures were nearly confluent (FIG. 2). Subsequently, cells were cultured in Primary Differentiation Medium (PDM) (containing 100 nM LDN193189, 10 uM SB431542, 5 uM CKI-7, and supplemented with 10 mM Nicotinamide) for 45 hours, before being further supplemented with 10 uM Rock inhibitor for an hour (FIG. 3 A). Differentiating cultures were single cell dissociated using TryPLE™ Express, re-suspended in PDM supplemented with 10 mM Nicotinamide and 10 uM Rock inhibitor, and formed into 3D cell aggregates of approximately 1500 cells/aggregate, using the AggreWellP400 (StemCell Technologies) (FIG. 3B), and cultured overnight. After 12-18 hours, the cell aggregates. The cell aggregates were cultured in suspension in Corning® Costar® Ultra-Low attachment 6-well plates (Corning) in primary differentiation medium (with 10 mM Nicotinamide), until day 4 or day 6, to differentiate as generate 3D aggregates of hESC-derived eyefield cells (ANEBs) to eyefield progenitor cells (FIG. 4A). At day 6, ANEBs were re-seeded onto RGFMG coated plates in RPEC Differentiation Medium (RDM) (containing 250 nM IDE-2 and 3 uM CHIR99021). ANEBs attached to the plate and the outgrowths were assessed for the appearance of immature RPE-like morphology (FIG. 8). ANEB outgrowths were cultured in RDM until day 14. Some putative hESC-RPEC cultures were maintained in an undisrupted form on the plates, while others were single cell dissociated and re-plated onto RGFMG at 150,000 cells/cm2 and cultured in Base Medium 2 (BM2), or RPEC Culture Medium (RCM), both supplemented with 10 uM Y-27632 until medium change the following day. hESC-RPEC cultures that are not dissociated may be maintained in BM2, without further supplementation, or in RMM, to generate mature hESC-RPECs within 21-28 days of the differentiation process (FIG. 9).
The hESC methods of the invention relating to the differentiation of human SCs towards the eyefield progenitor cells, that are Rax+ on day 4 and day 6 (FIG. 6), which has been confirmed by qRT-PCR expression of Rax, LHX2, Pax6(−5a) (FIG. 7). […] FIG. 31 A is a summary of experimental conditions designed to test the ability of each molecule to contribute to efficient RPEC differentiation within a 14-day period. Primary differentiation was from day 0-day 6, followed by secondary differentiation, or RPE differentiation, from day 6 to day 14. Briefly, hESC differentiation to RPE in the absence of LDN is low. […] The role of CKI-7 on differentiation efficiency was tested in combination with a variety of combinations to determine the optimal signalling requirements for differentiation. The small molecule IDE-2 was tested for its ability to functionally replace Activin A in a context for which it had not previously been tested. […] Although the effect of NIC on hESC-RPEC differentiation was positive during differentiation towards to the eyefield, but negative after. […]

[1] = molecule used in secondary (RPE) differentiation conditions, day 6 to day 14
[2] = molecule used in primary differentiation conditions, day 0-day 6

Compound	hESC-RPEC differentiation (% putative RPE morphology at day 14) [1]	hESC-RPEC differentiation (% putative RPE morphology at day 14) [2]	hESC-RPEC differentiation by day 14 (combined use of IDE-2 with the GSK3b inhibitor, secondary differentiation day 6 to day 14)
Cc1c[nH]c(-c2cnc(NCCNc3ccc(C#N)cn3)nc2-c2ccc(Cl)cc2Cl)n1 [CHIR, CHIR99021]	essential for highly efficient RPEC differentiation		
NCCNS(=O)(=O)c1ccc(Cl)c2ccncc12 [CKI-7]		greatly enhanced; also recorded: further enhanced	
O=C(O)CCCCCC(=O)NN=C1CCCC1 [IDE-2]	enhances RPEC differentiation		highest degree of hESC-RPEC differentiation
c1ccc2c(-c3cnn4cc(-c5ccc(N6CCNCC6)cc5)cnc34)ccnc2c1 [LDN, LDN193189]		improved differentiation	
NC(=O)c1cccnc1 [NIC, nicotinamide]	suppresses RPEC differentiation; also recorded: negative	positive	
